According to patent US20240374879A1, “METHODS AND COMPOSITIONS TO REDUCE CELLULAR DEPOSITION, AND HYDROCEPHALUS SHUNT FAILURE” (Wayne State University, priority 2021, published 2024):

System: Human astrocyte cells
Assay: Multiplex ELISA of cytokine concentrations in astrocyte culture media
Format: cell-based
Conditions: for % Change of Cytokine Concentration IL-1α, GIT 27 vs DMSO treated vehicle / % Change of Cytokine Concentration IL-1β, GIT 27 vs DMSO treated vehicle / % Change of Cytokine Concentration IL-6, GIT 27 vs DMSO treated vehicle / % Change of Cytokine Concentration IL-8, GIT 27 vs DMSO treated vehicle / % Change of Cytokine Concentration IL-10, GIT 27 vs DMSO treated vehicle / % Change of Cytokine Concentration TNF-α, GIT 27 vs DMSO treated vehicle: GIT 27 1000 μg/mL
Procedure: Media Creation: A media stock solution was created by combining astrocyte media (ScienCell), supplement kit, 10 mL fetal bovine serum (FBS), 5 mL penicillin/streptomycin, and 5 mL astrocyte growth serum (ScienCell), and an additional 10 mL FBS (ScienCell). IL-1β and IL-10 were diluted to a concentration of 50,000 ng/mL and 100,000 ng/mL, respectively, in phosphate buffer solution (PBS, w/v). GIT 27 was dissolved in a dimethyl sulfoxide (DMSO) vehicle (Sigma-Aldrich) to a concentration of 20 mg/mL (w/v).
Media solutions for the different groups were made directly before each media change. Cytokines IL-1β or IL-10 were added to the media stock solution for a final concentration of 14.67 ng/mL. GIT 27 was added for a concentration of 1000 μg/mL in the media stock solution for our experimental group. […] Our vehicle group contained 50 μL/mL DMSO alone, which is proportional to the amount in the GIT 27 treated group. Concentrations were then made for evaluation of dose and time dependency (FIGS. 6A-6F).
Cell Culture: Human astrocyte cells were initially grown in T75 flasks with media changes every three days using basic astrocyte media and washed with Hanks Balanced Salt Solution without Calcium and Magnesium (Gibco). Once the flasks came to confluency, the cells were trypsinized using Trypsin-EDTA at 0.25% (Gibco) and seeded at a seeding density of 250,000 cells per well. These samples were broken up into three treatment groups: control, DMSO, and GIT 27 tested as a pre-treatment, simultaneous treatment, and post-treatment (FIGS. 6A-6F). Each group and treatment time were then either exposed to IL-1β or IL-10 separately at concentrations described for media creation.
ELISA: As previously published, the Bursky Center for Human Immunology & Immunotherapy Programs Immunomonitoring Laboratory at Washington University School of Medicine ran the multiplex assays according to the manufacturer's protocol (Khodadadei et al., bioRxiv 2021.11.04.467357, 2021. https://doi.org/10.1101/2021.11.04.467357). Samples of culture media analyzed were collected on days 1, 5, 7, 9, 12, and 14 of culture following seeding day. Each frozen supernatant media sample was rapidly thawed at 37° C. and centrifuged at 15,000 G for five minutes prior to incubating with the two-multiplex immunoassay for the following inflammatory cytokines: IL-1α, IL-1β, IL-6, TNF-α, IL-8, IL-10 (ThermoFisher Scientific), C3, and C1q (Millipore Sigma). Magnetic beads and assay buffer were added to all the wells of a 96 well-plate. Media samples and standards were then added in duplicate. The wells were thoroughly washed, and the detection antibody was then added followed by a streptavidin phycoerythrin incubation. Beads were resuspended with sheath fluid and 50 beads per region were acquired on a Luminex FLEXMAP3D system. The concentration of each analyte was then calculated by comparing the sample mean fluorescent intensity to the appropriate standard curve. Belysa v.1 software (Millipore Sigma) was used to generate a 5-parameter logistical curve fit algorithm. Protein concentration is reported as pg/mL for each analyte.
Statistical Analysis: Three conditions were tested in this experiment, treatment group, treatment time, and IL B or IL10 exposure, with a total of 16 different samples tested with an n=five of replicates. The three treatment groups tested were a control, vehicle control (DMSO), and GIT 27 (G27). Each treatment group was tested as a pre-treatment (denoted Pre-), dose simultaneous to treatment (denoted Sim-), and post-treatment (denoted Post-) as time points with respect to shunt insertion represented by exposure to either IL-1β (IL1B) or IL-10 (IL10). Utilizing the abbreviations described here we combined these to allow for an easier understand of the results presented. An example of this can be control Pre-IL1B, DMSO Pre-IL1B, and G27 Pre-IL1B which represents the three treatment groups when used as a pre-treatment to IL-1β exposure.

[1] = G27 Sim-IL1B compared to G27 Post-IL1B
[2] = G27 Sim-IL1B compared to G27 Pre-IL1B
[3] = G27 Sim-IL10 compared to both G27 Pre-IL10 and G27 Post-IL10
[4] = Post-IL10, vs control Post-IL10
[5] = Post-Treatment (C), exposed to IL-1β
[6] = Post-Treatment (C), exposed to IL-10
[7] = Pre-IL1B, vs DMSO Pre-IL1B (not vs control)
[8] = Pre-Treatment (A), exposed to IL-1β
[9] = Pre-Treatment (A), exposed to IL-10
[10] = Simultaneous Treatment (B), exposed to IL-1β
[11] = Simultaneous Treatment (B), exposed to IL-10

SMILES: O=C(O)CC1CC(c2ccccc2)=NO1 (centres unmarked) [GIT 27, 4,5-Dihydro-3-phenyl-5-isoxazoleacetic acid]
- IL-10 concentration by treatment time (G27 Post-IL10 compared to G27 Sim-IL10): significantly lower
- TNF-α concentration by treatment time (G27 Pre-IL10 compared to G27 Sim-IL10 and G27 Post-IL10): significantly higher
- IL-6 concentration by treatment time [1]: significantly lower
- TNF-α concentration by treatment time [1]: significantly lower
- IL-10 concentration by treatment time [2]: lower
- TNF-α concentration by treatment time [2]: lower
- IL-1α concentration by treatment time [3]: significantly higher
- IL-1β concentration by treatment time [3]: significantly higher
- IL-1α concentration compared to both control and DMSO (Post-IL1B): significantly lower
- IL-10 concentration compared to both control and DMSO (Post-IL1B): significantly lower
- IL-6 concentration compared to DMSO (Post-IL1B, vs DMSO Post-IL1B): significantly lower
- IL-8 concentration compared to DMSO (Post-IL1B, vs DMSO Post-IL1B): significantly lower
- TNF-α concentration compared to DMSO (Post-IL1B, vs DMSO Post-IL1B): significantly lower
- IL-1α concentration compared to control and DMSO (Post-IL10): significantly lower
- IL-6 concentration compared to control and DMSO (Post-IL10): significantly lower
- IL-8 concentration compared to control and DMSO (Post-IL10): significantly lower
- TNF-α concentration compared to DMSO (Post-IL10, vs DMSO Post-IL10): significantly lower
- IL-10 concentration compared to control [4]: significantly lower
- TNF-α concentration compared to control [4]: significantly lower
- % Change of Cytokine Concentration IL-1α, GIT 27 vs DMSO treated vehicle [5]: −20.17%
- % Change of Cytokine Concentration IL-1β, GIT 27 vs DMSO treated vehicle [5]: −16.52%
- % Change of Cytokine Concentration IL-6, GIT 27 vs DMSO treated vehicle [5]: −28.57%
- % Change of Cytokine Concentration IL-8, GIT 27 vs DMSO treated vehicle [5]: −57.49%
- % Change of Cytokine Concentration IL-10, GIT 27 vs DMSO treated vehicle [5]: −33.02%
- % Change of Cytokine Concentration TNF-α, GIT 27 vs DMSO treated vehicle [5]: −33.45%
- % Change of Cytokine Concentration IL-1α, GIT 27 vs DMSO treated vehicle [6]: −85.58%
- % Change of Cytokine Concentration IL-1β, GIT 27 vs DMSO treated vehicle [6]: 0.00%
- % Change of Cytokine Concentration IL-6, GIT 27 vs DMSO treated vehicle [6]: −76.82%
- % Change of Cytokine Concentration IL-8, GIT 27 vs DMSO treated vehicle [6]: −78.86%
- % Change of Cytokine Concentration IL-10, GIT 27 vs DMSO treated vehicle [6]: −71.33%
- % Change of Cytokine Concentration TNF-α, GIT 27 vs DMSO treated vehicle [6]: −80.45%
- IL-1α concentration, difference between treatment groups (Pre-IL1B): no significant difference
- IL-8 concentration, difference between treatment groups (Pre-IL1B): no significant difference
- IL-10 concentration, difference between treatment groups (Pre-IL1B): no significant difference
- TNF-α concentration, difference between treatment groups (Pre-IL1B): no significant difference
- IL-1β concentration compared to DMSO [7]: significantly lower
- IL-6 concentration compared to DMSO [7]: significantly lower
- any of the cytokine concentrations, difference between treatment groups (Pre-IL10): no significant difference
- % Change of Cytokine Concentration IL-1α, GIT 27 vs DMSO treated vehicle [8]: −30.49%
- % Change of Cytokine Concentration IL-1β, GIT 27 vs DMSO treated vehicle [8]: −42.70%
- % Change of Cytokine Concentration IL-6, GIT 27 vs DMSO treated vehicle [8]: −76.60%
- % Change of Cytokine Concentration IL-8, GIT 27 vs DMSO treated vehicle [8]: −31.56%
- % Change of Cytokine Concentration IL-10, GIT 27 vs DMSO treated vehicle [8]: 26908.58%
- % Change of Cytokine Concentration TNF-α, GIT 27 vs DMSO treated vehicle [8]: −12.41%
- % Change of Cytokine Concentration IL-1α, GIT 27 vs DMSO treated vehicle [9]: 11.34%
- % Change of Cytokine Concentration IL-1β, GIT 27 vs DMSO treated vehicle [9]: 0.00%
- % Change of Cytokine Concentration IL-6, GIT 27 vs DMSO treated vehicle [9]: 21.96%
- % Change of Cytokine Concentration IL-8, GIT 27 vs DMSO treated vehicle [9]: −43.65%
- % Change of Cytokine Concentration IL-10, GIT 27 vs DMSO treated vehicle [9]: −6.42%
- % Change of Cytokine Concentration TNF-α, GIT 27 vs DMSO treated vehicle [9]: −13.92%
- IL-1α concentration compared to control (Sim-IL1B, vs control Sim-IL1B): significantly lower
- IL-1β concentration compared to control (Sim-IL1B, vs control Sim-IL1B): significantly lower
- IL-10 concentration compared to control (Sim-IL1B, vs control Sim-IL1B): significantly lower
- TNF-α concentration compared to control (Sim-IL1B, vs control Sim-IL1B): significantly lower
- IL-1α concentration compared to DMSO and control (Sim-IL10): significantly decrease
- IL-8 concentration compared to DMSO and control (Sim-IL10): significantly decrease
- IL-10 concentration compared to both DMSO and control (Sim-IL10): significantly lower
- TNF-α concentration compared to control (Sim-IL10): significantly lowered
- % Change of Cytokine Concentration IL-1α, GIT 27 vs DMSO treated vehicle [10]: −40.83%
- % Change of Cytokine Concentration IL-1β, GIT 27 vs DMSO treated vehicle [10]: −8.24%
- % Change of Cytokine Concentration IL-6, GIT 27 vs DMSO treated vehicle [10]: 31.97%
- % Change of Cytokine Concentration IL-8, GIT 27 vs DMSO treated vehicle [10]: −34.82%
- % Change of Cytokine Concentration IL-10, GIT 27 vs DMSO treated vehicle [10]: −31.11%
- % Change of Cytokine Concentration TNF-α, GIT 27 vs DMSO treated vehicle [10]: −8.65%
- % Change of Cytokine Concentration IL-1α, GIT 27 vs DMSO treated vehicle [11]: −66.52%
- % Change of Cytokine Concentration IL-1β, GIT 27 vs DMSO treated vehicle [11]: −89.31%
- % Change of Cytokine Concentration IL-6, GIT 27 vs DMSO treated vehicle [11]: −28.89%
- % Change of Cytokine Concentration IL-8, GIT 27 vs DMSO treated vehicle [11]: −81.04%
- % Change of Cytokine Concentration IL-10, GIT 27 vs DMSO treated vehicle [11]: −49.58%
- % Change of Cytokine Concentration TNF-α, GIT 27 vs DMSO treated vehicle [11]: −53.95%
- IFN-γ concentration (any of the treatment groups): no detectable concentration
